Results on seven compounds are retold here after BindingDB's records for doi:10.7270/Q2Z036M0 (Broad Institute, 2010).

pEC50: −log10 of the molar value.

The target of the experiment is T1, S-ribosylhomocysteine lyase (Vibrio harveyi, UniProt B0LUE4).
T1 sequence (B0LUE4 whole entry): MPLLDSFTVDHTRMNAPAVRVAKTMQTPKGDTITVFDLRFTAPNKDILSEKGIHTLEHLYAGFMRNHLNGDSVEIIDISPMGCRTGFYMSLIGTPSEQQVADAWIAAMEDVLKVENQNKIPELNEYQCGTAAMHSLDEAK
The experiment is described as follows: AI-2 quorum sensing modulators, luminescence, confirmation, dose retest, Vibrio harveyi (AID 2724).
As to `C=Cn1c(C(=O)O)ccc1-c1ccc(CC)cc1`, the pEC50 (usually the EC50 on a negative log10 scale, so that one unit is a factor of ten) is 5.68.
The compound `COc1cc(NC(=O)CN2C(=O)NC(c3ccccc3)(c3ccccc3)C2=O)cc(OC)c1` [MLS001176525] gave a pEC50 of 5.80.
Turning to `Cc1cccc(NS(=O)(=O)c2ccc(Oc3ccccc3)cc2)n1` [SMR000071466], the pEC50 was 5.59.
As for `CN(C)S(=O)(=O)c1ccc(NC(=S)NC(=O)Cc2ccccc2)cc1` [N-[[4-(dimethylsulfamoyl)phenyl]carbamothioyl]-2-phenyl-ethanamide], the figure is under 3.80.
`CCCc1ccc(S(=O)(=O)N(C)S(=O)(=O)c2ccc(F)cc2)cc1` [N-(4-fluorophenyl)sulfonyl-N-methyl-4-propylbenzenesulfonamide] had a pEC50 of 5.79.
For `CCc1ccc(S(=O)(=O)Nc2ccc(Br)cn2)cc1` [MLS001211346] the value was 5.44.
`Cn1cnc(S(=O)(=O)Nc2ccc(OC(F)(F)F)cc2)c1` [SMR000314513] had a pEC50 of 5.36.
